Laboratory results published in publication PMC8728736, “A Reactivity-Based ^18F-Labeled Probe for PET Imaging of Oxidative Stress in Chemotherapy-Induced Cardiotoxicity” (Molecular Pharmaceutics, 2021).

What was measured:
[1] = Reactivity of 18F-FPBT to reactive oxygen species: peroxynitrite; conditions: 3-morpholinosydnomine 100 μM, 5 min
Procedure: ^18F-FPBT (0.5–2.0 MBq) was reacted with potassium superoxide (source of superoxide, 1 mg), hydrogen peroxide (100 μM), Fenton-reaction-generated hydroxyl radicals (100 μM), iron(II) sulfate heptahydrate (100 μM), tert-butyl hydroperoxide (100 μM), tert-butoxy radical (100 μM), and 3-morpholinosydnomine (source of peroxynitrite (100 μM)) for 5 min or diethylamine NONOate (source of nitric oxide, 100 μM) for 30 min at room temperature, after which it was subjected to radio-HPLC analysis and % oxidation was calculated.

[2] = Ex vivo biodistribution in doxorubicin-treated and control rats after PET; parameters: species or system Wistar rats; conditions: for Ex vivo biodistribution, Blood / Ex vivo biodistribution, Bone / Ex vivo biodistribution, Heart / Ex vivo biodistribution, Kidney / Ex vivo biodistribution, Large Intestine / Ex vivo biodistribution, Liver / Ex vivo biodistribution, Lung / Ex vivo biodistribution, Muscle / Ex vivo biodistribution, Small Intestine / Ex vivo biodistribution, Spleen / Ex vivo biodistribution, Urine: 40 min post-injection
Procedure: Male Wistar rats (280–300 g) were used in all experiments. Subcutaneous 7 day osmotic pumps (Alzet), containing either doxorubicin (Cambridge Bioscience, 30 mg/kg cumulative dose) or vehicle (sterile 0.9% NaCl), were inserted into rats under 2% isoflurane in 100% oxygen.
Wistar rats that had received either doxorubicin treatment (male, 267 ± 19 g, n = 6) or saline (male, 303 ± 9 g, n = 4) via osmotic pumps for 7 days were injected with ^18F-FPBT (2.6 ± 1.5 MBq) via the tail vein on the PET/CT scanner bed. The time of injection coincided with the beginning of PET acquisition in order to obtain dynamic tracer uptake information. PET scans with the chest area in the field of vision were acquired for 30 min, followed by a CT scan, after which the animals were sacrificed and organs harvested, weighed, and gamma-counted as for the biodistribution protocol. The hearts were frozen in liquid nitrogen for gamma counting and oxidative stress biomarker assays. The PET data was reconstructed into three frames: 0–3 min, 3–10 min, and 10–30 min. For the time–activity curve, the PET data was reconstructed into 1 min per frame in the first 5 min and then 5 min per frame between 5 and 30 min. Using VivoQuant software (v3.0, inviCRO, LLC, Boston, USA), regions of interest (ROIs) were drawn in the left ventricle and blood inside the myocardium. Radioactivity uptake in the heart was calculated as a standard uptake value ratio (SUVR) between left ventricle and blood. Data are reported as mean ± SD. Statistical analysis was performed using one-way ANOVA with Tukey’s multiple comparisons test.

[3] = Serum stability at 37 °C by radio-HPLC; assay type: in vitro ADME, rat; conditions: rat serum, ice-cold acetonitrile precipitation
Procedure: ^18F-FPBT (∼3.0 MBq) in 5% ethanol in PBS (200 μL) containing sodium ascorbate (0.01 mg/mL) was incubated with rat serum (200 μL) at 37 °C for 1 min or 1 h. Subsequently, plasma proteins were precipitated from the supernatant with ice-cold acetonitrile (1.5 mL), and samples were centrifuged (3 min, 13 000 rpm). The residual activity in the pellet was <3%. The supernatant (∼2.0 MBq, 1.0 mL) was analyzed by radio-HPLC. HPLC method: ZORBAX column (300SB-C18, semipreparative 9.4 mm × 250 mm, 5 μm) using acetonitrile and water as the mobile phase, at a flow rate of 3.0 mL/min. The following gradient was used: from 50% to 90% acetonitrile in 15 min; kept at 90% acetonitrile for 10 min; from 90 to 50% acetonitrile in 5 min.
^18F-FBPT-Ox (2–4 MBq, 50 μL in 10% EtOH/PBS) was added to serum (500 μL) and incubated at 37 °C for 5, 15, and 30 min, respectively. Plasma proteins were precipitated with a 5-sulfosalicylic acid water solution (10% w/v, 1 mL) and centrifuged (3 min, 13 000 rpm). The supernatant was removed and diluted with 500 μL of DI H2O and analyzed via radio-HPLC. A control experiment was performed where ^18F-FBPT-Ox (2 MBq, 50 μL in 10% EtOH/PBS) was added to 500 μL of PBS, incubated at 37 °C for 30 min. A 5-sulfosalicylic acid water solution (10% w/v, 1 mL) was added, thoroughly mixed, then diluted with 500 μL of DI H2O, and analyzed via radio-HPLC. […]

- Ex vivo biodistribution, Blood ([2]; Doxorubicin group, n = 6): 0.08 ± 0.06 % ID/g
- Ex vivo biodistribution, Bone ([2]; Doxorubicin group, n = 6): 0.30 ±0.13 % ID/g
- Ex vivo biodistribution, Heart ([2]; Doxorubicin group, n = 6): 0.43 ± 0.08 % ID/g
- Ex vivo biodistribution, Kidney ([2]; Doxorubicin group, n = 6): 0.41 ± 0.14 % ID/g
- Ex vivo biodistribution, Large Intestine ([2]; Doxorubicin group, n = 6): 1.42 ±2.07 % ID/g
- Ex vivo biodistribution, Liver ([2]; Doxorubicin group, n = 6): 0.73 ± 0.24 % ID/g
- Ex vivo biodistribution, Lung ([2]; Doxorubicin group, n = 6): 0.31 ± 0.12 % ID/g
- Ex vivo biodistribution, Muscle ([2]; Doxorubicin group, n = 6): 0.10 ± 0.04 % ID/g
- Ex vivo biodistribution, Small Intestine ([2]; Doxorubicin group, n = 6): 2.23 ± 1.43 % ID/g
- Ex vivo biodistribution, Spleen ([2]; Doxorubicin group, n = 6): 0.15 ± 0.07 % ID/g
- Ex vivo biodistribution, Urine ([2]; Doxorubicin group, n = 6): 12.5 ± 5.33 % ID/g
- Ex vivo biodistribution, Blood ([2]; Saline group, n = 4): 0.07 ± 0.02 % ID/g
- Ex vivo biodistribution, Bone ([2]; Saline group, n = 4): 0.25 ± 0.22 % ID/g
- Ex vivo biodistribution, Heart ([2]; Saline group, n = 4): 0.42 ± 0.17 % ID/g
- Ex vivo biodistribution, Kidney ([2]; Saline group, n = 4): 0.42 ± 0.19 % ID/g
- Ex vivo biodistribution, Large Intestine ([2]; Saline group, n = 4): 0.38 ± 0.20 % ID/g
- Ex vivo biodistribution, Liver ([2]; Saline group, n = 4): 0.65 ± 0.13 % ID/g
- Ex vivo biodistribution, Lung ([2]; Saline group, n = 4): 0.29 ± 0.05 % ID/g
- Ex vivo biodistribution, Muscle ([2]; Saline group, n = 4): 0.08 ± 0.02 % ID/g
- Ex vivo biodistribution, Small Intestine ([2]; Saline group, n = 4): 3.33 ± 3.38 % ID/g
- Ex vivo biodistribution, Spleen ([2]; Saline group, n = 4): 0.11 ± 0.02 % ID/g
- Ex vivo biodistribution, Urine ([2]; Saline group, n = 4): 5.25 ± 3.05 % ID/g
- Residual activity in the pellet after protein precipitation [3]: < 3%
SMILES: [18F]CCCN1c2ccccc2SC1c1ccccc1 (stereo not shown) [^18F-FPBT, 3-(3-[^18F]Fluoropropyl)-2-phenyl-2,3-dihydrobenzo[d]thiazole]
- Reactivity to peroxynitrite [1]: some reactivity
- Post-mortem heart uptake in doxorubicin-treated animals, in words ([2]; 30 min post IV injection): did not show an increased uptake
